The source of these data is patent US8796320B2, “1,3,4-Oxadiazole-2-carboxamide compound” (General Incorporated Association Pharma Valley Project …, priority 2009, dated 2014).

Experiment [1] deals with human lymphoma SCC-3 cells. In words: Evaluation using human lymphoma-transplanted nude mice. The following applies: 80 mg/kg orally once a day for 5 days, p < 0.05. The experiment is classed as in vivo, nude mouse. On the procedure:
1×10^6 human lymphoma SCC-3 cells (containing Matrigel) were subcutaneously transplanted to the flank part of each 6-week-old male nude mouse (BALB/cA-nu/nu, CLEA Japan, Inc.). After the transplantation, the tumor volumes [major axis (mm) and minor axis (mm)] of the SCC-3 cancer-bearing mice were measured using an electronic vernier caliper (CD-10, Mitutoyo Corp.), and tumor volumes [mm^3: (major axis)×(minor axis)^2/2] were calculated. SCC-3 cancer-bearing mice whose tumor volume reached 50 to 300 mm^3 were selected and divided based on the tumor volumes into groups each containing 5 individuals. A test compound was suspended in a 0.5% methylcellulose solution and orally administered at a dose of 0.01 mL/g body weight once a day for 5 days (Day 0 (administration initiation day) to Day 4). To a control group, none was administered. The tumor volumes of the SCC-3 cancer-bearing mice were measured every day from the initiation of test compound administration to evaluate antitumor effect. The antitumor effect was assessed by calculating T/C (%) values according to the following formula: • V: tumor volume on every assay day • V0: tumor volume on the administration initiation day (V/V0 of the test compound group)/(V/V0 of the control group)×100
Validity determination criteria for this system adopted the method of Inaba, et al. (Cancer, 1989, 64, 1577-1582).

A further experiment deals with STAT3. In words: STAT3 transcription inhibition test (reporter gene method). The experiment is classed as cell-based. The settings on record: Homo sapiens; compound at 100 μM; STAT3 reporter HeLa stable cell line, oncostatin M 10 ng/mL, 4 hours; read-out: STAT3 transcription inhibitory activity (%). On the procedure:
The inhibition of STAT3 transcription was evaluated by using STAT3 reporter HeLa stable cell line (Panomics Inc., catalog No. RC0003), a cell line for the reporter gene method, and performing the following method according to the appendix included therein.
STAT3, reporter HeLa stable cell line subcultured and maintained in a Dulbecco's modified Eagle's medium (DMEM) containing 10% fetal bovine serum, 100 units/mL penicillin, and 100 μg/mL streptomycin was inoculated at a concentration of 40000 cells/well to a 96-well plate (white) and attached to the plate by overnight incubation at 37° C. under 5% CO2. After addition of each evaluation compound adjusted to various concentrations (adjusted with a DMSO solution), the cells were precultured for 1 hour. Then, oncostatin M for activating STAT3 was added at a final concentration 10 ng/mL, and the cells were further cultured at 37° C. under 5% CO2 for 4 hours. Luciferase activity derived from the cells was determined using Steady-Glo Luciferase Assay System (Promega Corp.), and STAT3 transcriptional activity scores were calculated according to the following formula: STAT3 transcriptional activity score (%)=100×(Lchem−L0)/(LDMSO−L0) • L0: luminescence intensity obtained without stimulation with oncostatin M • Lchem: luminescence intensity obtained by the addition of a test sample • LDMSO: luminescence intensity obtained by the addition of only a solvent for dissolving a test sample
The test results were indicated in the rate of inhibition of STAT3 transcription by each compound at a concentration of 100 μM.

The subject of the next experiment is MDA-MB-468. In words: MDA-MB-468 cell growth inhibitory activity. It is filed as cell-based. The following applies: Homo sapiens; compound at 20 μM; MDA-MB-468, 72 hours. On the procedure:
MDA-MB-468 diluted with phenol red-free DMEM/F-12 (GIBCO; 10% FBS, 20 units/ml penicillin/streptomycin) was inoculated at a concentration of 2000 cells/well to a 96-well plate (Greiner Bio-One) and cultured overnight at 37° C. in the presence of 5% CO2. Then, a test sample solution (containing 2 (v/v)% DMSO) adjusted to 10 μM was added thereto at a concentration of 10 μL/well and contacted with the cells at 37° C. for 72 hours in the presence of 5% CO2. Each well was washed three times with a medium. Then, after addition of 100 μL/well of a medium and 20 μL/well of CellTiter 96 AQueous, One Solution Reagent (Promega Corp.), the cells were incubated at 37° C. for 2 hours in the presence of 5% CO2. Absorbance at 495 nm was measured using Multiplate reader (Molecular Devices, Inc.), and the rate of inhibition of cell growth was calculated according to the following formula: Rate of inhibition of cell growth (%)=100−100×(Abschem−bkgd)/(AbsDMSO−bkgd) • Abschem: absorbance obtained by the addition of a test sample • AbsDMSO: absorbance obtained by the addition of only a solvent for test sample dissolution • bkgd: absorbance obtained by the addition of CellTiter 96 AQueous One Solution Reagent to a medium for cell culture
The test results were indicated in the rate of inhibition of cell growth by each compound at a concentration of 20 μM.

Experiment [2] has as its system Human lymphoma SCC-3 cells. In words: SCC-3 cell growth inhibition test (MTT method). It is filed as cell-based. The following applies: 72-hour culture. On the procedure: Human lymphoma SCC-3 cells purchased from Japan Health Sciences Foundation were cultured for […] at a density of 5000 cells/well in a 96-well plate with RPMI1640 (Sigma-Aldrich Corp.) containing 10% fetal bovine serum (FBS; GIBCO) as a culture medium.
Simultaneously with cell inoculation, each test compound diluted to various concentrations with an RPMI medium was added to each well. After 72-hour culture, cell growth inhibitory activity was determined by the MTT method (J. Immunol. Methods, 1993, 65, 581-593) using a microplate reader (NJ-2300, BioTek Instruments, Inc.).
The test results were indicated in a concentration (IC50) at which 50% cell growth was inhibited.

As for `CC(C)(C)c1ccc(-c2cccc(C(=O)Nc3nnc(-c4ccco4)o3)c2)cc1` [Compound Ia-14, 4′-tert-Butyl-N-[5-(2-furyl)-1,3,4-oxadiazol-2-yl]-3-biphenylcarboxamide], the “T/C (%)” value in experiment [1] (day 11 after administration) was found to be 57%. Besides, the inhibition at 100 µM in the experiment with STAT3 came out at 57%.
In the case of `CCCCOC(=O)c1ccc(-c2cccc(C(=O)Nc3nnc(-c4ccco4)o3)c2)cc1` [Compound Ia-23, 4′-n-Butoxycarbonyl-N-[5-(2-furyl)-1,3,4-oxadiazol-2-yl]-3-biphenylcarboxamide], the “T/C (%)” value in experiment [1] (day 6 after administration) is recorded as 55%.
Molecule `O=C(Nc1nnc(-c2ccco2)o1)c1cccc(-c2ccc(C3CCCCC3)cc2)c1` [Compound Ia-84, 4′-Cyclohexyl-N-[5-(2-furyl)-1,3,4-oxadiazol-2-yl]-3-biphenylcarboxamide] displayed an inhibition at 20 µM in the experiment with MDA-MB-468 of 68%. This molecule registered an IC50 in experiment [2] of less than 100 nM. Besides, the inhibition at 100 µM with STAT3 was found to be 74%.
With `O=C(Nc1nnc(-c2ccco2)o1)c1cc(-c2ccccc2)nc2nc(N3CCCCC3)sc12` [Compound Ib-1, N-[5-(2-Furyl)-1,3,4-oxadiazol-2-yl]-5-phenyl-2-piperidino-7-thiazolo[4,5-b]pyridinecarboxamide], the inhibition at 20 µM with MDA-MB-468 came to 96%. Further, half-maximal inhibition in experiment [2] (IC50) was put at 520 nM. The “T/C (%)” value in experiment [1] (day 18 after administration) is reported as 52%. Also, the inhibition at 100 µM in the experiment with STAT3 was more than 100%.
Molecule `COc1ccc(-c2cc(C(=O)Nc3nnc(-c4ccco4)o3)c3sc(N4CCCCC4)nc3n2)cc1OC` [Compound Ib-4, N-[5-(2-Furyl)-1,3,4-oxadiazol-2-yl]-5-(3,4-dimethoxyphenyl)-2-piperidino-7-thiazolo[4,5-b]pyridinecarboxamide] had an inhibition at 20 µM in the experiment with MDA-MB-468 of 78%. Besides, the IC50 in experiment [2] was determined as 700 nM. In addition, the inhibition at 100 µM in the experiment with STAT3 was more than 100%.

Usually IC50 stands for the concentration at which inhibition is half-maximal. Read a high IC50 as weaker potency in that assay.
